The values that follow come from PubChem BioAssay (NCI).

Some test systems named below: PC-3 prostate; MDA-MB-435; UACC-62 melanoma; SK-OV-3 ovarian; HT29 colon; OVCAR-8 ovarian; MDA-MB-231 breast; 786-0 renal; NCI-H226 lung; HL-60(TB) leukemia.
Assay in all cases: inhibition of tumour cell growth, NCI panel, 48 h

Several values for one entry are separate records, joined by “and”; a condition that tells them apart may be missing. Equal values may be shown once.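 In this assay, cells in 96-well plates receive the compound at five concentrations for 48 hours. Endpoints are linearly interpolated between the surrounding concentrations. The concentration for 50% growth inhibition is given as GI50. Definition used: TGI = concentration required for complete inhibition of growth.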

As to `COc1ccc(OC)c(/C=N/NC(=O)Cc2csc3nc(-c4ccc(Br)cc4)cn23)c1`, the GI50 in the experiment on PC-3 prostate is 13.5 µM; in the experiment with MDA-MB-435, 3.96 µM; in the experiment with UACC-62 melanoma it was 12.1 µM; in the experiment with SK-OV-3 ovarian, 57.7 µM; in the experiment on HT29 colon, 16.4 µM; with OVCAR-8 ovarian, 11.6 µM. Further, the results for the GI50 in the experiment with MDA-MB-231 breast and in the experiment with 786-0 renal were 16.4 µM and 26.3 µM, respectively. Besides, the TGI in the experiment with PC-3 prostate was 93.8 µM; with MDA-MB-435, 16.2 µM; in the experiment on UACC-62 melanoma it was 27.7 µM; in the experiment on SK-OV-3 ovarian, over 100 µM; in the experiment with HT29 colon it was over 100 µM; with OVCAR-8 ovarian, 38.2 µM. For the same compound, the TGI in the experiment on MDA-MB-231 breast is 41.2 µM; in the experiment with 786-0 renal, over 100 µM.
In the case of `FC(F)(F)c1nc(N2CCCC2)ncc1-c1nnnn1-c1ccc(Cl)cc1`, the GI50 is 16 µM with PC-3 prostate; 15.2 µM in the experiment on MDA-MB-435; 7.49 µM in the experiment with UACC-62 melanoma; 31.8 µM in the experiment on SK-OV-3 ovarian; 20.4 µM with HT29 colon; 25 µM with OVCAR-8 ovarian. Moreover, the GI50 in the experiment on MDA-MB-231 breast is 24.6 µM; in the experiment with NCI-H226 lung it was 13.9 µM; with 786-0 renal, 33.2 µM. For the same compound, the TGI with PC-3 prostate is 82.2 µM; in the experiment on MDA-MB-435, 40.8 µM; in the experiment with UACC-62 melanoma, over 100 µM; in the experiment with SK-OV-3 ovarian, over 100 µM; with HT29 colon, 65.9 µM; in the experiment on OVCAR-8 ovarian, over 100 µM. Further, the TGI in the experiment on MDA-MB-231 breast, with NCI-H226 lung and in the experiment with 786-0 renal was over 100 µM in each case.
On to `COc1cc(C2c3[nH]c4ccccc4c3C[C@H]3COC(=O)N23)cc(OC)c1OC` (stereo partly drawn), for which the GI50 with PC-3 prostate, in the experiment on UACC-62 melanoma, in the experiment with HT29 colon, in the experiment on OVCAR-8 ovarian, with HL-60(TB) leukemia and in the experiment on 786-0 renal was under 0.01 µM in each case. Also, the TGI was 0.0494 µM in the experiment on MDA-MB-435; over 100 µM in the experiment with UACC-62 melanoma; over 100 µM with HT29 colon; 1.71 µM and 0.389 µM with OVCAR-8 ovarian; 0.902 µM in the experiment on NCI-H226 lung; 0.0961 µM and < 0.01 µM in the experiment on HL-60(TB) leukemia. Also, the TGI in the experiment on 786-0 renal is over 100 µM.
Regarding `Cc1c(N2CCCC2)cc2c(c1NC(=O)c1ccccc1Cl)C(C)(C)CC2(C)C`, the TGI with PC-3 prostate was determined as 29.9 µM; with MDA-MB-435, 27.9 µM; with UACC-62 melanoma, 23.2 µM; in the experiment with SK-OV-3 ovarian, 27.2 µM; in the experiment on HT29 colon, 29.4 µM; in the experiment on OVCAR-8 ovarian it was 32.6 µM. Moreover, the TGI was determined as 29.3 µM with MDA-MB-231 breast, 41.5 µM in the experiment with NCI-H226 lung and 27.8 µM in the experiment on 786-0 renal.
Turning to `OC(c1cccc(-n2ccc(C(F)(F)F)n2)c1)c1cnccc1NC1CCCCCC1` (stereo not drawn), the GI50 was 1.59 µM in the experiment on PC-3 prostate; 1.73 µM in the experiment with MDA-MB-435; 1.74 µM in the experiment with UACC-62 melanoma; 1.8 µM in the experiment on HT29 colon; 1.92 µM in the experiment with OVCAR-8 ovarian; 1.69 µM in the experiment with MDA-MB-231 breast. Moreover, the values for the GI50 with HL-60(TB) leukemia and with 786-0 renal were 2.06 µM and 1.72 µM, respectively. The TGI with PC-3 prostate was 3.09 µM; in the experiment with MDA-MB-435 it was 3.14 µM; in the experiment with UACC-62 melanoma, 3.14 µM; in the experiment on HT29 colon, 4.33 µM; in the experiment on OVCAR-8 ovarian, 3.93 µM; in the experiment on MDA-MB-231 breast, 3.16 µM. Also, the results for the TGI with HL-60(TB) leukemia and in the experiment with 786-0 renal were 4.26 µM and 3.18 µM, respectively.
Turning to `Clc1ncnc(Cl)c1Cl`, the TGI in the experiment on PC-3 prostate, in the experiment with MDA-MB-435, in the experiment on UACC-62 melanoma, with SK-OV-3 ovarian, in the experiment on HT29 colon and with OVCAR-8 ovarian was over 100 µM throughout. In addition, the TGI with MDA-MB-231 breast, in the experiment with NCI-H226 lung and in the experiment on 786-0 renal was over 100 µM each time.
Consider `O=C1C(Cl)=C(Nc2cccc(Cl)c2)C(=O)N1Cc1ccccc1`, for which the GI50 in the experiment on PC-3 prostate was 3.52 µM; in the experiment on MDA-MB-435, 2.26 µM; with UACC-62 melanoma it was 12.4 µM; in the experiment on SK-OV-3 ovarian it was 15.7 µM; in the experiment with OVCAR-8 ovarian it was 4.63 µM; in the experiment on NCI-H226 lung it was 10.5 µM. Moreover, in the experiment with 786-0 renal, the GI50 is 3.85 µM. For the same compound, the TGI in the experiment on PC-3 prostate is 20.1 µM; with MDA-MB-435, 7.17 µM; in the experiment on UACC-62 melanoma, 27.5 µM; in the experiment on SK-OV-3 ovarian, 35 µM; with OVCAR-8 ovarian, 32 µM; in the experiment with NCI-H226 lung, 29.3 µM. Besides, in the experiment on 786-0 renal, the TGI came out at 16.2 µM.
As for `N=C(N)c1ccc(OCc2cccc(COc3ccc(C(=N)N)cc3)c2)cc1`, the GI50 with PC-3 prostate was 12.4 µM; with MDA-MB-435, 4.01 µM; in the experiment with UACC-62 melanoma it was 2.17 µM; in the experiment on SK-OV-3 ovarian, 18.4 µM; in the experiment with HT29 colon, 7.64 µM; in the experiment on OVCAR-8 ovarian, 11.3 µM. Besides, the GI50 with MDA-MB-231 breast was 4.09 µM; in the experiment on NCI-H226 lung it was 7.2 µM; in the experiment with 786-0 renal, 4.56 µM. The TGI in the experiment on PC-3 prostate is 25.8 µM; with MDA-MB-435 it was 11.8 µM; with UACC-62 melanoma, 7.99 µM; with SK-OV-3 ovarian, 50.9 µM; in the experiment with HT29 colon it was over 100 µM; with OVCAR-8 ovarian it was 38.4 µM. For the same compound, the TGI with MDA-MB-231 breast was 15.9 µM; in the experiment with NCI-H226 lung it was 23.1 µM; in the experiment with 786-0 renal, 15.1 µM.
